Where two headings read alike, the source gives them in different places.
Tests used:
[1] = test system: Francisella tularensis subspecies Novicida; assay type: cell-based
[2] = test system: Francisella philomiragia; assay type: cell-based
[3] = test system: bacterial growth; assay type: cell-based
[4] = test system: lawn of E. coli; assay type: cell-based; details: 1.0 tet/0.78 Cohex and 2.0 tet/1.6 mg Cohex disk pairings, overnight at 37° C.
[5] = test system: BHK cells
[6] = mouse, in vivo
[7] = test system: bacterial growth; details: cited from earlier work
[8] = biological target: CorA of Salmonella typhimurium (Salmonella typhimurium, UniProt P0A2R8); details: cited from earlier work
[9] = biological target: CorA of Methanococcus jannaschii (Methanocaldococcus jannaschii, UniProt Q58439); details: cited from earlier work
[10] = test system: S. typhimurium strain in which CorA was the only functional Mg2+ transporter; details: cited from earlier work
[11] = biological target: MgtB Mg transporter (Salmonella typhimurium, UniProt P22036); details: cited from earlier work
[12] = biological target: TolC (E. coli) (Escherichia coli, UniProt P02930); details: isothermal titration calorimetry; cited from earlier work
Sequence of TolC (E. coli) (P02930 23-493): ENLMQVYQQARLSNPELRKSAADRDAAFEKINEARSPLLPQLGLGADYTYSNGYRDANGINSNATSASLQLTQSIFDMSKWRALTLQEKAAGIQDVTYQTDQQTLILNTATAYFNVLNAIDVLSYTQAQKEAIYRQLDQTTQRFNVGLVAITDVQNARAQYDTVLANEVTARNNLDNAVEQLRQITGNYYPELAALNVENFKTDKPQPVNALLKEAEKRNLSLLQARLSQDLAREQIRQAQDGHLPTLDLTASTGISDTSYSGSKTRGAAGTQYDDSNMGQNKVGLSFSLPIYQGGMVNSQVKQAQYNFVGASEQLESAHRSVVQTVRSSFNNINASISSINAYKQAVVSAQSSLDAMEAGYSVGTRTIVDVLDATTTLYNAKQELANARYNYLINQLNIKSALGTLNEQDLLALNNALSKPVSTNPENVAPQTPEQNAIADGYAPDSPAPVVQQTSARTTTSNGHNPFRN

Sequence of CorA of Salmonella typhimurium (P0A2R8 whole entry): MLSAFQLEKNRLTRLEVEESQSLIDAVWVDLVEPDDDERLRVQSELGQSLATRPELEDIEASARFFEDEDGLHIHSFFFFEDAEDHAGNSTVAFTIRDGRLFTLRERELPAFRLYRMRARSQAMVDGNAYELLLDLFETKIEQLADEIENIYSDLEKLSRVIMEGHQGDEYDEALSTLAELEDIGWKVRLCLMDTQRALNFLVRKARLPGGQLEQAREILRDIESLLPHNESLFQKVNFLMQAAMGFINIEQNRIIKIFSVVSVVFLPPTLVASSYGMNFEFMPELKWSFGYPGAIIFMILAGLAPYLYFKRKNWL
Sequence of CorA of Methanococcus jannaschii (Q58439 whole entry): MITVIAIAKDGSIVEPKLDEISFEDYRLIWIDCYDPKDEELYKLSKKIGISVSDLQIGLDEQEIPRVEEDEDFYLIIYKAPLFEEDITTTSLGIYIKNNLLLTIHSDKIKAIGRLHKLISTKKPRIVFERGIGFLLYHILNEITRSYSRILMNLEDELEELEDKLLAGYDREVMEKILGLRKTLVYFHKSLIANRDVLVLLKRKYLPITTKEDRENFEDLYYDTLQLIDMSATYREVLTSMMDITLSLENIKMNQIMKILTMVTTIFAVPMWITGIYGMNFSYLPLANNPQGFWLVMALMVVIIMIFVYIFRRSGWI
Sequence of MgtB Mg transporter (P22036 whole entry): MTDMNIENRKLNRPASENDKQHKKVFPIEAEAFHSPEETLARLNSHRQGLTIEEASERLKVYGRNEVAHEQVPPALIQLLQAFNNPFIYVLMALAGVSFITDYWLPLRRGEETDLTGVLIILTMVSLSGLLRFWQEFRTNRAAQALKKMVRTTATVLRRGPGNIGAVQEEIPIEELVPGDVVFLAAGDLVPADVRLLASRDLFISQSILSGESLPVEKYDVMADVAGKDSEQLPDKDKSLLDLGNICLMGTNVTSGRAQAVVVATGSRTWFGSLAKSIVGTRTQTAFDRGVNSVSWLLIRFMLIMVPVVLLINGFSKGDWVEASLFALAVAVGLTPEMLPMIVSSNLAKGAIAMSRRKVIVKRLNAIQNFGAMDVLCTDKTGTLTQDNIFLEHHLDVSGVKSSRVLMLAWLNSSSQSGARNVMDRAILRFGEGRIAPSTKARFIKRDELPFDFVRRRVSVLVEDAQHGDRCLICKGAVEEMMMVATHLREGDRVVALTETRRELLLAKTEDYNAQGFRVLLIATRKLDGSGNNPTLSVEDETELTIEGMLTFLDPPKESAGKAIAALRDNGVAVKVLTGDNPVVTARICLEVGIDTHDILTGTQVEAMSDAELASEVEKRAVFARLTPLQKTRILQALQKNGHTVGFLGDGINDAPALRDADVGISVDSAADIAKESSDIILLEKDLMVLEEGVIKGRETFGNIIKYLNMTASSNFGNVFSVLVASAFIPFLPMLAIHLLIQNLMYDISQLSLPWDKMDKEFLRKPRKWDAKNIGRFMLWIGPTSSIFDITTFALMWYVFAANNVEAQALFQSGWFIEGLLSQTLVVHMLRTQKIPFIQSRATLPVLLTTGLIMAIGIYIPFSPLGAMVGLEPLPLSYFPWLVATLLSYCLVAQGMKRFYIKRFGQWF

## hexamminecobalt (III) chloride [Cohex]
[1]
  kind of inhibition of the bacterial growth: bacteriostatic rather than bacteriocidal
[2]
  kind of inhibition of the bacterial growth: bacteriostatic rather than bacteriocidal
[3]
  effect of the presence of Cohex on potency of the antibiotic drugs: increased the potency of the drugs up to about an order of magnitude
  effect on bacterial growth: no effect on bacterial growth
[4]
  zone of inhibition, interaction with tetracycline: synergistic effect
[5]
  CC50: ~3200 µM
[6]
  toxicity to mice: not to be highly toxic
[7]
  effect on bacterial growth: prevents bacterial growth at micromolar concentrations
[8]
  inhibition of 63Ni2+ uptake: inhibited
[8]; corresponding to the IC50, species not given
  Ki: 0.5 µM
[9]
  inhibition of 63Ni2+ uptake: inhibited
[10]
  inhibition of growth: inhibited the growth
[11]
  inhibition of alternate pathways of Mg2+ transport: does not inhibit
[12]
  Cohex ions bound per trimeric TolC: ~1

From patent US20100004187A1 (priority 2008, published 2010)
